{
  "source": "patent US10172820B2",
  "about": "“Skin preparation composition for external use having excellent antiseptic ability” (AMOREPACIFIC CORPORATION, priority 2011, dated 2019)",
  "experiment": "Skin irritation test (24 hour patch test)",
  "design": "species or system human",
  "details": "in vivo; for Average skin irritation score: human, 24 h",
  "experimental": "The patch is applied to the upper part of the back of each panel, using 20 μL of the test ingredient on an IQ chamber (Chemotechique, […]). The patch is removed after 24 hours of application and a first evaluation is conducted in 30 more minutes. After 24 hours, a second evaluation is carried out. To determine the severity of the skin irritation of each specimen, a weighted grade is applied according to the severity of the positive reaction on the skin to calculate the average skin irritation score as given by the following Equation and determine the severity of the skin irritation from the specimen. […] Mild irritation Score≥5: Severe irritation",
  "data": [
    {"smiles": "COc1ccc(C(=O)O)cc1", "note": "[p-anisic acid]", "values": [
      {"measurement": "Average skin irritation score", "setting": "1 %", "result": 0.94},
      {"measurement": "Skin irritation, result in words", "result": "almost no irritation"}
    ]},
    {"smiles": "C=CCCCCCCCCC(=O)OCC(O)CO", "note": "(stereo not drawn) [Glyceryl undecylenate, glyceryl undecylenate]", "values": [
      {"measurement": "Average skin irritation score", "setting": "4 %", "result": 0.00},
      {"measurement": "Skin irritation, result in words", "result": "almost no irritation"}
    ]},
    {"smiles": "CCCCCCCC(=O)OCC(O)CO", "note": "(stereo not drawn) [Glyceryl caprylate, glyceryl caprylate]", "values": [
      {"measurement": "Average skin irritation score", "setting": "5 %", "result": 0.94},
      {"measurement": "Skin irritation, result in words", "result": "almost no irritation"}
    ]}
  ]
}
